Results reported in BindingDB's records for doi:10.1016/j.bmcl.2012.10.084 (Takeda Pharmaceutical, 2012).

Biological target: Mitogen-activated protein kinase kinase kinase 7 (TAK1) (Homo sapiens) (UniProt O43318)
Experiment: Inhibition of TAK1

Mitogen-activated protein kinase kinase kinase 7 (TAK1) (Homo sapiens), sequence (O43318 whole entry, looked up): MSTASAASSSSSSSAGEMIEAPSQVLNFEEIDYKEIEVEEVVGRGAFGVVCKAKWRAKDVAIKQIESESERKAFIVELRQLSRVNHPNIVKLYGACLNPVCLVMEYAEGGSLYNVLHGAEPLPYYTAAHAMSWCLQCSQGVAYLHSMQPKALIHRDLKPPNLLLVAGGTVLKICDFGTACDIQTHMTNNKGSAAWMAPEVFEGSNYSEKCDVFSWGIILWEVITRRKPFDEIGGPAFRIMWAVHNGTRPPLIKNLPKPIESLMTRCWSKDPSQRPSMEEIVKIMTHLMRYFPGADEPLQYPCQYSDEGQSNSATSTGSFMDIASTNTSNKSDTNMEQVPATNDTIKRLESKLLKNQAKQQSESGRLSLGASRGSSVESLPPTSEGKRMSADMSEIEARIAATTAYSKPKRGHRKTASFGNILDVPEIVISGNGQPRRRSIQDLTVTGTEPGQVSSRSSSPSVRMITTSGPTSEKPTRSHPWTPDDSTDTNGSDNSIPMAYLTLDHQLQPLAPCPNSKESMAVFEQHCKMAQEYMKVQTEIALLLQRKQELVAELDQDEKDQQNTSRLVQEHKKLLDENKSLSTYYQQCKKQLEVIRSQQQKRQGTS

IC50: > 10 µM
Structure (SMILES): CC(C)(C)c1ccc(C(=O)Nc2cn3cc(-n4ccnc4)ccc3n2)cc1
